Where two headings read alike, the source gives them in different places.
Assays:
VqmA [1] = target: T1, VqmA (Vibrio cholerae, UniProt A0A0F0AZW0); experiment: biochemical
Target sequence in this assay (A0A0F0AZW0 1-246 limits assumed): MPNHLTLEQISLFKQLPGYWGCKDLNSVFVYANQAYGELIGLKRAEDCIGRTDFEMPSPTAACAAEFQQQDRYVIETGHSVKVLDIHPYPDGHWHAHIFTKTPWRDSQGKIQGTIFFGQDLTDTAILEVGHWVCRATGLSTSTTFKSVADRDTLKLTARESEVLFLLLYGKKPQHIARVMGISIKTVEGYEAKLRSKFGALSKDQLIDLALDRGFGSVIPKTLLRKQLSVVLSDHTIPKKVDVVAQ

VqmA [2] = target: T1, VqmA; experiment: biochemical; remark: listed apart in the source
Target sequence in this assay (A0A0F0AZW0 1-246): as the sequence (A0A0F0AZW0 1-246 limits assumed) above

With CC1NC(C)(C)CNC1=O (stereo not drawn) [compound 2, 3,5,5-trimethylpiperazin-2-one] the Kd (VqmA [1]) was 7 ± 3.1 µM.

Work on C[C@H]1NC(C)(C)CNC1=O [compound 1, (R)-3,5,5-trimethylpiperazin-2-one] yielded a Kd (VqmA [1]) of 10.3 ± 3.1 µM.

Compound Cc1cnc(O)cn1 [compound 5, 5] has a Kd (VqmA [2]) of 6 ± 1 µM.

— article doi:10.1101/2019.12.19.881847v1 (biorxiv, 2019)
